Experimental data reported in patent publication US20230330221A1, “ADJUVANT BASED ON PEPTIDE NUCLEIC ACID” (priority 2019, published 2023).
Entries after “also recorded” stand apart in the source; their conditions may differ. Where two headings read alike, the source gives them in different places.

Key:
[1] = tested on: A/Singapore/GP1908/2015 strain; type: in vivo, BALB/c mouse; conditions: subcutaneous, 1 μg adjuvant per shot, after the second administration; rank among MIP01, adjuvant-free and CPP01 groups (FIG. 2)
[2] = tested on: A/Singapore/GP1908/2015 strain; type: in vivo, BALB/c mouse; conditions: transnasal, 10 μg adjuvant per shot; rank among MIP01, adjuvant-free and CPP01 groups (FIG. 4A)
[3] = tested on: B/Maryland/15/2016 strain; type: in vivo, BALB/c mouse; conditions: transnasal, 10 μg adjuvant per shot; rank among MIP01, adjuvant-free and CPP01 groups (FIG. 4B)
[4] = tested on: A/Singapore/GP1908/2015 strain; type: in vivo, BALB/c mouse; conditions: subcutaneous, both first and second administrations
[5] = tested on: B/Maryland/15/2016 strain; type: in vivo, BALB/c mouse; conditions: subcutaneous, both first and second administrations
[6] = tested on: A/Singapore/GP1908/2015 strain; type: in vivo; conditions: transnasal, 10 μg adjuvant + 1 μg HA split antigen per shot, BALB/c mouse, both first and second administrations; versus adjuvant-free group (FIG. 3A)
[7] = tested on: B/Maryland/15/2016 strain; type: in vivo; conditions: transnasal, 10 μg adjuvant + 1 μg HA split antigen per shot, BALB/c mouse, both first and second administrations; versus adjuvant-free group; Mann-Whitney U test, p<0.05 (FIG. 3B)

| Substance | neutralizing antibody titer against A/Singapore/GP1908/2015 strain [1] | antigen-specific IgA titer in the nasal cavity wash against A/Singapore/GP1908/2015 strain [2] | antigen-specific IgA titer in the nasal cavity wash against B/Maryland/15/2016 strain [3] | blood antigen-specific IgG titer against A/Singapore/GP1908/2015 strain ([4]; 1 μg adjuvant + 1 μg HA split antigen per shot, BALB/c mouse, versus adjuvant-free group (FIG. 1A)) | blood antigen-specific IgG titer against A/Singapore/GP1908/2015 strain ([4]; 1 μg adjuvant per shot, compared to the CPP01 administration group (FIG. 1A)) | blood antigen-specific IgG titer against B/Maryland/15/2016 strain ([5]; 1 μg adjuvant + 1 μg HA split antigen per shot, BALB/c mouse, versus adjuvant-free group (FIG. 1B)) | blood antigen-specific IgG titer against B/Maryland/15/2016 strain ([5]; 1 μg adjuvant per shot, compared to the CPP01 administration group (FIG. 1B)) | blood antigen-specific IgG titer against A/Singapore/GP1908/2015 strain [6] | blood antigen-specific IgG titer against B/Maryland/15/2016 strain [7] |
| --- | --- | --- | --- | --- | --- | --- | --- | --- | --- |
| GRKKRRQRRRPPQ (Human immunodeficiency virus) [CPP01, reference compound] | lowest value | lowest | lowest | – | – | – | – | – | – |
| GRKKRRQRRRPPQ-G3PNA (C-terminal G3PNA conjugate; Human immunodeficiency virus) [MIP01] | highest value | highest | highest | higher as compared to that in the adjuvant-free group | showed a higher blood antigen-specific IgG titer | higher as compared to that in the adjuvant-free group | showed a higher blood antigen-specific IgG titer | higher as compared to that in the adjuvant-free group | higher as compared to that in the adjuvant-free group; also recorded: significant increase in antibody titer with respect to the adjuvant-free group |
